# Laboratory results from patent US8063210B2, “Process and intermediate” (AstraZeneca AB, priority 2006, dated 2011).
# Key:
# [1] = pro-drug conversion to the active moiety in human plasma; format: in vitro ADME
# [2] = tested on: human colorectal (SW620, HCT116, Colo205) and lung (A549, Calu-6) tumour xenografts; experiment: tumour growth inhibition in human tumour xenografts; format: in vivo; details: panel of human colorectal (SW620, HCT116, Colo205) and lung (A549, Calu-6) tumour xenografts; with statistical significance
compound,measurement,setting,value
"CCN(CCCOc1ccc2c(Nc3cc(CC(=O)Nc4cccc(F)c4)n[nH]3)ncnc2c1)CCOP(=O)(O)O [AZD1152, 2-{ethyl[3-({4-[(5-{2-[(3-fluorophenyl)amino]-2-oxoethyl}-1H-pyrazol-3-yl)amino]quinazolin-7-yl}oxy)propyl]amino}ethyl dihydrogen phosphate]",conversion of pro-drug to active moiety AZD1152 HQPA,[1],rapidly and completely converted
same,inhibition of tumour growth,[2],inhibit tumour growth
